This note sets out measurements from ChEMBL document CHEMBL1201862, “PubChem BioAssay data set” (2004).

What all share (experiment): NCI anticancer screen, dose series, 48 h
Test [1] relates to 786-0.
The subject of test [2] is A498.
The subject of test [3] is CAKI-1.
The test system of test [4] is CCRF-CEM.
Test [5] relates to HCC 2998.
In test [6] the test system is HOP-62.
For test [7], the system named is HOP-92.
For test [8], the system named is HT-29.
Test [9] relates to K562.
For test [10], the system named is KM12.
Test [11] concerns M14.
Test [12] has as its system NCI-H23.
Test [13] has as its system NCI-H460.
The subject of test [14] is OVCAR-3.
Test [15] deals with SF-539.
Test [16] deals with TK-10.
Test [17] concerns HCT-15.
The subject of test [18] is SK-MEL-5.

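Where inhibition never reached the appropriate level, the endpoint shown equals the highest concentration tested. Otherwise, values were interpolated linearly from a five-concentration, 48-hour dose response in 96-well plates. GI50 = concentration required for 50% inhibition of growth.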 The source made the active and inactive calls. No stated cut-off is given here; in the data, active = GI50 up to about 1.1 µM and inactive = higher.

Regarding `O=c1[nH]c2ccccc2cc1C(Cl)=C(Cl)Cl`, the GI50 in [1], in test [2], in test [3], in [4], in test [5] and in [6] was > 100 µM (inactive) each time. Moreover, the GI50 in test [7], in test [8], in [9], in test [10], in test [11] and in [12] was > 100 µM (inactive) in each case. For the same compound, the GI50 in [13], in test [14], in test [15] and in test [16] was > 100 µM (inactive) in each case.

On to `Oc1nc(-c2ccccc2)cc(-c2ccccc2O)n1`, for which the GI50 in test [1] was > 100 µM (inactive); in test [2] it was > 100 µM (inactive); in test [3], 76.2 µM (inactive); in [4], > 100 µM (inactive); in test [5], > 100 µM (inactive); in [17], 83.2 µM. Besides, the GI50 was 30.5 µM (inactive) in [6]; 84.5 µM (inactive) in test [7]; 56.6 µM (inactive) in [8]; > 100 µM (inactive) in test [9]; > 100 µM (inactive) in test [10]; > 100 µM (inactive) in test [11]. The GI50 in [12] was > 100 µM (inactive); in test [13], 87.5 µM (inactive); in [14], 98.2 µM (inactive); in test [15] it was > 100 µM (inactive); in test [16], > 100 µM (inactive).

Regarding `CCN(CC)C(c1ccc(N(C)C)cc1)C(c1ccc(N(C)C)cc1)N(CC)CC` (stereo not drawn), the GI50 in test [1] is 61.2 µM (inactive); in test [2] it was > 72.9 µM (inactive); in test [3], 25.9 µM (inactive); in test [4], 26 µM (inactive); in [5], 40.4 µM (inactive); in [17], 30.2 µM. For the same compound, the GI50 in test [6] is 61.5 µM (inactive); in test [7] it was 13.2 µM (inactive); in test [8], 21.6 µM (inactive); in test [9] it was 15.8 µM (inactive); in test [10], 22.9 µM (inactive); in test [11], 33.3 µM (inactive). Moreover, the GI50 was 48.3 µM (inactive) in [12]; 69.2 µM (inactive) in [13]; 21.5 µM (inactive) in test [14]; 36.5 µM (inactive) in [15]; 16.8 µM (inactive) in [18]; > 72.9 µM (inactive) in [16].

Take `CC(=O)N(/N=C\c1ccc([N+](=O)[O-])cc1)c1ccccc1`: the GI50 is > 100 µM (inactive) in [1]; > 100 µM (inactive) in [2]; > 100 µM (inactive) in test [3]; > 100 µM (inactive) in test [4]; > 100 µM (inactive) in [5]; above 100 µM in test [17]. Moreover, the GI50 in test [6], in [7], in test [8], in test [9], in [10] and in [11] was > 100 µM (inactive) each time. The GI50 in [12], in test [13], in test [14], in test [15], in [18] and in test [16] was > 100 µM (inactive) each time.

For the compound `N/C(=N\O)N/N=C/c1ccc(O)c(O)c1`, the GI50 in test [1] is > 100 µM (inactive); in test [2], > 100 µM (inactive); in test [3], > 100 µM (inactive); in test [4] it was > 100 µM (inactive); in [5], > 100 µM (inactive); in test [17], above 100 µM. The GI50 was > 100 µM (inactive) in test [6]; > 100 µM (inactive) in [7]; > 100 µM (inactive) in [8]; 44.9 µM (inactive) in test [9]; > 100 µM (inactive) in test [10]; > 100 µM (inactive) in test [11]. Further, the GI50 in test [12], in test [13], in test [14], in test [15], in [18] and in [16] was > 100 µM (inactive) each time.

Take `Cc1c(Cl)cccc1NC(=O)C(=O)c1c(O)c2ccc(O)cc2oc1=O`: the GI50 in test [1] was > 100 µM (inactive); in test [2] it was > 100 µM (inactive); in [3] it was > 100 µM (inactive); in [4], > 100 µM (inactive); in test [5], > 100 µM (inactive); in test [17], above 100 µM. Also, the GI50 in test [6], in test [7], in test [8], in [9], in test [10] and in [11] was > 100 µM (inactive) in each case. Further, the GI50 in [12], in [13], in test [14], in test [15], in test [18] and in [16] was > 100 µM (inactive) in each case.

Regarding `C=CCN1/C(=C2\SC(=S)N(c3ccc(C)cc3)C2=O)Sc2c1ncn(C)c2=O`, the GI50 in test [1] was 71.1 µM (inactive); in test [2] it was 51.1 µM (inactive); in test [3], > 100 µM (inactive); in test [4] it was > 100 µM (inactive); in test [5], 47.6 µM (inactive); in [17], above 100 µM. Further, the GI50 in [6] was 69.2 µM (inactive); in test [7], > 100 µM (inactive); in test [8], > 100 µM (inactive); in test [9] it was > 100 µM (inactive); in test [10], > 100 µM (inactive); in test [11], > 100 µM (inactive). Moreover, the GI50 in test [12] was > 100 µM (inactive); in [13], > 100 µM (inactive); in test [15] it was 90.8 µM (inactive); in test [18], 38.4 µM (inactive); in [16], > 100 µM (inactive).

As to `COC(=O)C(C(=O)C(=O)Nc1ccccc1C(C)=O)c1nc2ccc(Cl)cc2nc1O` (stereo not drawn), the GI50 in test [1] was > 100 µM (inactive); in [2] it was > 100 µM (inactive); in test [3], > 100 µM (inactive); in test [4] it was > 100 µM (inactive); in test [5] it was > 100 µM (inactive); in test [17] it was above 100 µM. The GI50 in [6], in test [7], in test [8], in test [9], in test [10] and in test [11] was > 100 µM (inactive) each time. Further, the GI50 in test [12], in test [13], in test [14], in test [15], in [18] and in test [16] was > 100 µM (inactive) throughout.

With `C(CCC[Te][Te]CCCCCCOC1CCCCO1)CCOC1CCCCO1` (stereo not drawn), the GI50 was 15.5 µM (inactive) in test [1]; 17.6 µM (inactive) in test [2]; 12.6 µM (inactive) in test [3]; 11 µM (inactive) in [4]; 14.1 µM (inactive) in [5]; 19.2 µM in [17]. The GI50 in test [6] was 15.1 µM (inactive); in test [7], 12.2 µM (inactive); in test [8], 12 µM (inactive); in [9] it was 5.86 µM (inactive); in test [10], 13.7 µM (inactive); in test [11] it was 21.1 µM (inactive). Besides, the GI50 is 12.4 µM (inactive) in test [12], 14.8 µM (inactive) in [13], 17.3 µM (inactive) in [15] and 30.1 µM (inactive) in test [16].

As to `C/C(=N/N(C=O)C[n+]1ccccc1)C(CN(CC(C)C)CC(C)C)C(=O)Nc1ccc(C)cc1C` (stereo not drawn), the GI50 in [1] is > 100 µM (inactive); in test [2], 33.1 µM (inactive); in [3] it was 55.1 µM (inactive); in [4], > 100 µM (inactive); in [5], > 100 µM (inactive); in test [6], > 100 µM (inactive). Moreover, the GI50 in [7] is 75.3 µM (inactive); in test [8], > 100 µM (inactive); in test [9], > 100 µM (inactive); in test [10], 84.1 µM (inactive); in [11], > 100 µM (inactive); in test [12], > 100 µM (inactive). The GI50 in test [13] was > 100 µM (inactive); in test [14] it was > 100 µM (inactive); in test [15], > 100 µM (inactive); in test [18] it was 57.1 µM (inactive); in test [16] it was 42.4 µM (inactive).

Take `O=C(CCCNC(=O)OCc1ccccc1)OCc1ccc2c(c1)C(=O)c1ccccc1C2=O`: the GI50 in test [1] is 25.3 µM (inactive); in test [2] it was 27.2 µM (inactive); in [3], > 56.8 µM (inactive); in test [4] it was > 100 µM (inactive); in [5] it was > 100 µM (inactive); in [17], above 100 µM. In addition, the GI50 is 30.6 µM (inactive) in [6]; 36.6 µM (inactive) in test [7]; > 100 µM (inactive) in test [8]; > 100 µM (inactive) in test [9]; > 100 µM (inactive) in test [10]; > 100 µM (inactive) in test [11]. The GI50 in test [12] is 45.6 µM (inactive); in test [13] it was > 100 µM (inactive); in [14], > 100 µM (inactive); in test [15] it was 23.1 µM (inactive); in test [18] it was > 30.7 µM (inactive); in test [16] it was 34.8 µM (inactive).

With `COc1ccc(/C(=C/n2ccnc2)C(=O)c2ccc(OC)c(OC)c2)cc1`, the GI50 was > 100 µM (inactive) in test [1]; > 100 µM (inactive) in [2]; > 100 µM (inactive) in test [3]; > 100 µM (inactive) in test [4]; > 100 µM (inactive) in test [5]; above 100 µM in test [17]. Further, the GI50 in [6], in test [7], in test [9], in test [10], in test [11] and in test [12] was > 100 µM (inactive) each time. Also, the GI50 in [13], in test [14], in test [15], in test [18] and in [16] was > 100 µM (inactive) throughout.
